How the values were obtained:
restriction enzyme PstI = experiment: PstI cleavage reactions with different distances from bead or plate surface to the DNA cleavage site; format: biochemical; details: 0.6 M trehalose vs none; cleavage site 20 bp, 50 bp, 100 bp from surface; beads and plates
Description: Three biotin-labeled DNA fragments I, II, and III (Seq. ID Nos. 4 to 6, Scheme 4) were cleaved at their respective restriction enzyme PstI site and the size of the DNA fragments released was examined. Paramagnetic streptavidin beads were washed with the accessory 1× binding buffer and recovered with a magnetic stand to remove the supernatant. They were then suspended in identical buffer. To each of the three types of biotin-labeled DNA fragments (500 ng) was admixed an equal volume of 2× binding buffer, the bead solution was added, and the mixture was stirred gently for 15 minutes with top to bottom inversion and rotation to induce adsorption. The beads to which the sample had adsorbed were recovered with the magnetic stand, washed three times with 1× binding buffer, and washed one more time with 1× PstI buffer. […] The precipitate of DNA fragments obtained was dissolved in 1× TE (pH 7.5) and analyzed with Bioanalyzer DNA 1000 assay (Agilent Technologies).
Three biotin-labeled DNA fragments I, II, and III (Seq. ID Nos. 4 to 6, Scheme 4) were cleaved at their respective restriction enzyme PstI site and the size of the DNA fragments released was examined. […] The precipitate of DNA fragments obtained was dissolved in 1× TE (pH 7.5) and analyzed with Bioanalyzer DNA 1000 assay (Agilent Technologies). […]

[1] = tested on: XhoI, PstI, HindIII, and EcoRI; experiment: DNA cleavage reactions by various restriction enzymes on bead and plate surfaces; format: biochemical; details: 0.6 M trehalose vs none, all enzymes
Description: Differences in activity based on the type of enzyme in reactions under conditions where trehalose was present and absent and for various reactions surface shapes were examined. XhoI, PstI, HindIII, and EcoRI were employed as restriction enzymes to conduct reactions cleaving the same site on a DNA fragment with different enzymes (Scheme 8).
Cleavage reactions by various restriction enzymes were conducted on biotin-labeled DNA fragments I, II, and III (Seq. ID Nos. 4 to 6, Scheme 4) on bead surfaces. […] Paramagnetic streptavidin beads were washed with accessory 1× binding buffer, recovered with a magnetic stand to remove the supernatant, and suspended in the same buffer. […] The precipitate of DNA fragments obtained was dissolved in 1× TE (pH 7.5) and analyzed with Bioanalyzer DNA 1000 assay (Agilent Technologies).
Biotin-labeled DNA fragments II and III (Seq. ID Nos. 5 and 6, Scheme 4) were subjected to cleavage reactions by different restriction enzymes on horizontal streptavidin-coated plate surfaces. […] The precipitate of DNA fragments obtained was dissolved in 1× TE (pH 7.5) and analyzed with Bioanalyzer DNA 1000 assay (Agilent Technologies).

## OC[C@H]1O[C@H](O[C@H]2O[C@H](CO)[C@@H](O)[C@H](O)[C@H]2O)[C@H](O)[C@@H](O)[C@@H]1O [trehalose, D(+)-trehalose]
Restriction enzyme PstI
  yield of DNA released by cleavage: increase
[1]
  enzymatic activity in cleavage reactions: increased activity
